In publication PMC4877006, “From Binding-Induced Dynamic Effects in SH3 Structures to Evolutionary Conserved Sectors” (PLoS Computational Biology, 2016):

Experiments:
Parameters in all cases: species or system chicken
[1] = biological target: T1, c- Src I77V (SH3 domain) (Gallus gallus, UniProt P00523, I132V); test: ITC binding of peptide RLP2 to c-Src SH3 I77V; conditions: ITC, 25 °C; RLP2 about 2 mM titrated into SH3 (50-122 μM); I77V; read-out: Kd (25 ºC)
T1 construct: The plasmid pET15b containing the chicken c-Src-SH3 domain gene; made in house
Description: (§1) Differential Scanning Calorimetry (DSC) was used to evaluate the effect of the mutation on the conformational equilibrium and stability of the protein. Isothermal Titration Calorimetry (ITC) measured the binding energetics of all mutants to the RLP2 ligand at 25°C. The results for the 15 mutants studied are summarized in Figs 1D, S1 and S2, as well as S3 and S4 Tables.
(§2) The plasmid pET15b containing the chicken c-Src-SH3 domain gene was a generous gift from Dr. E. Freire (Johns Hopkins University). The genes encoding for the c-Src-SH3 mutants were obtained by site directed mutagenesis using the QuickChange Site-Directed-Mutagenesis Kit (Stratagene) taking the WT c-Src-SH3 plasmid as template or purchased from Top Gene Technologies, Canada. WT and mutants of c-Src-SH3 domain were expressed and purified as previously described for the wild type protein [68]. The peptide RLP2 (Ac-RALPPLPRY-NH2) was bought from Peptide 2.0 (Piscataway, USA) and JPT (Berlin, Germany) with a purity > 95%. Protein concentration was determined by absorbance at 280 nm using an extinction coefficient of 16500 M^-1·cm^-1. Peptide concentration was determined by absorbance at 274 nm using an extinction coefficient of 1400 M^-1·cm^-1.
(§3) Isothermal titration calorimetry was performed using a high-precision VP titration calorimetric system (Microcal Inc., Northampton, MA) as previously described. […] Titrations were made using a profile of injection volumes from 3 μL to 20 μL to define the titration curve more clearly. The heat produced by the binding reaction between the Src-SH3 domain and the peptide ligand was calculated as the difference between the heat of reaction and the corresponding heat of dilution, as obtained from independent titrations of the peptide ligand into the buffer. The resulting binding isotherms were analyzed by non-linear least-square fittings of the experimental data to a model corresponding to a single set of identical sites, as described before.
(§4) Supplementary file pcbi.1004938.s008.doc: S3 Table Analysis of Src SH3 binding affinities through ITC. Thermodynamic binding affinity to peptide RLP2. A * indicates experiment made by fluorescence titration only. (DOC) Click here for additional data file.

[2] = biological target: T2, c-Src H59R (SH3 domain) (Gallus gallus, UniProt P00523, H122R/Q128R); test: ITC binding of peptide RLP2 to c-Src SH3 H59R; conditions: 25 °C
T2 construct: The plasmid pET15b containing the chicken c-Src-SH3 domain gene; made in house
Description: as §1, §2, §3, §4

[3] = system: c-Src L40V (SH3 domain); test: ITC binding of peptide RLP2 to c-Src SH3 L40V; conditions: 25 °C
Description: as §1, §2, §3, §4

[4] = biological target: T3, c-Src R73K (SH3 domain) (Gallus gallus, UniProt P00523, Q128K); test: ITC binding of peptide RLP2 to c-Src SH3 R73K; conditions: 25 °C
T3 construct: The plasmid pET15b containing the chicken c-Src-SH3 domain gene; made in house
Description: as §1, §2, §3, §4

[5] = biological target: T4, c-Src F18W (SH3 domain) (Gallus gallus, UniProt P00523, F86W); test: ITC binding of peptide RLP2 to c-Src SH3 F18W; conditions: 25 °C
T4 construct: The plasmid pET15b containing the chicken c-Src-SH3 domain gene; made in house
Description: as §1, §2, §3, §4

[6] = biological target: T5, c-Src R73E (SH3 domain) (Gallus gallus, UniProt P00523, Q128E); test: ITC binding of peptide RLP2 to c-Src SH3 R73E; conditions: 25 °C
T5 construct: The plasmid pET15b containing the chicken c-Src-SH3 domain gene; made in house
Description: as §1, §2, §3, §4

[7] = biological target: T6, c- Src R73Q (SH3 domain) (Gallus gallus, UniProt P00523); test: ITC binding of peptide RLP2 to c-Src SH3 R73Q; conditions: 25 °C
T6 construct: The plasmid pET15b containing the chicken c-Src-SH3 domain gene; made in house
Description: as §1, §2, §3, §4

[8] = biological target: T7, c-Src F34I (SH3 domain) (Gallus gallus, UniProt P00523, F102I/Q128R); test: ITC binding of peptide RLP2 to c-Src SH3 F34I; conditions: 25 °C
T7 construct: The plasmid pET15b containing the chicken c-Src-SH3 domain gene; made in house
Description: as §1, §2, §3, §4

[9] = binding of RLP2, H59R relative to wt
[10] = binding of RLP2, L40V relative to wt
[11] = binding of RLP2, R73K relative to wt
[12] = binding of RLP2, F18W relative to wt
[13] = binding of RLP2, R73E relative to wt
[14] = binding of RLP2, R73Q relative to wt
[15] = binding of RLP2, F34I relative to wt

## Ac-RALPPLPRY-NH2 [RLP2, Ac-RALPPLPRY-NH2]
[1]
  Kd: 15.5 ± 0.3 µM
[2]; [9]
  ∆∆Gb (25 ºC): -0.13 ± 0.03 kcal/mol
  ∆∆Hb (25 ºC): -0.1 ± 0.3 kcal/mol
[2]; ITC, binding of RLP2, H59R
  ∆Gb (25 ºC): -6.76 ± 0.01 kcal/mol
  ∆Hb (25 ºC): -14.3 ± 0.2 kcal/mol
[2]; ITC, RLP2 about 2 mM titrated into SH3 (50-122 μM), H59R, read-out: Kd (25 ºC)
  Kd: 11 ± 0.2 µM
[3]; [10]
  ∆∆Gb (25 ºC): 0.24 ± 0.04 kcal/mol
  ∆∆Hb (25 ºC): -0.6 ± 0.3 kcal/mol
[3]; ITC, binding of RLP2, L40V
  ∆Gb (25 ºC): -6.39 ± 0.02 kcal/mol
  ∆Hb (25 ºC): -14.8 ± 0.2 kcal/mol
[3]; ITC, RLP2 about 2 mM titrated into SH3 (50-122 μM), L40V, read-out: Kd (25 ºC)
  Kd: 20.5 ± 0.6 µM
[4]; [11]
  ∆∆Gb (25 ºC): -0.12 ± 0.04 kcal/mol
  ∆∆Hb (25 ºC): 0.3 ± 0.2 kcal/mol
[4]; ITC, binding of RLP2, R73K
  ∆Gb (25 ºC): -6.75 ± 0.02 kcal/mol
  ∆Hb (25 ºC): -13.9 ± 0.1 kcal/mol
[4]; ITC, RLP2 about 2 mM titrated into SH3 (50-122 μM), R73K (control), read-out: Kd (25 ºC)
  Kd: 11.3 ± 0.4 µM
[5]; [12]
  ∆∆Gb (25 ºC): 0.23 ± 0.03 kcal/mol
  ∆∆Hb (25 ºC): 1.2 ± 0.2 kcal/mol
[5]; ITC, binding of RLP2, F18W
  ∆Gb (25 ºC): -6.40 ± 0.01 kcal/mol
  ∆Hb (25 ºC): -13.0 ± 0.1 kcal/mol
[5]; ITC, RLP2 about 2 mM titrated into SH3 (50-122 μM), F18W, read-out: Kd (25 ºC)
  Kd: 20.2 ± 0.3 µM
[6]; [13]
  ∆∆Gb (25 ºC): -0.24 ± 0.04 kcal/mol
  ∆∆Hb (25 ºC): -0.1 ± 0.3 kcal/mol
[6]; ITC, binding of RLP2, R73E
  ∆Gb (25 ºC): -6.87 ± 0.03 kcal/mol
  ∆Hb (25 ºC): -14.3 ± 0.2 kcal/mol
[6]; ITC, RLP2 about 2 mM titrated into SH3 (50-122 μM), R73E (control), read-out: Kd (25 ºC)
  Kd: 9.3 ± 0.5 µM
[7]; [14]
  ∆∆Gb (25 ºC): -0.11 ± 0.04 kcal/mol
  ∆∆Hb (25 ºC): -0.4 ± 0.2 kcal/mol
[7]; ITC, binding of RLP2, R73Q
  ∆Gb (25 ºC): -6.74 ± 0.02 kcal/mol
  ∆Hb (25 ºC): -14.6 ± 0.1 kcal/mol
[7]; ITC, RLP2 about 2 mM titrated into SH3 (50-122 μM), R73Q (control), read-out: Kd (25 ºC)
  Kd: 11.4 ± 0.3 µM
[8]; [15]
  ∆∆Gb (25 ºC): 0.79 ± 0.03 kcal/mol
  ∆∆Hb (25 ºC): 0.6 ± 0.3 kcal/mol
[8]; ITC, binding of RLP2, F34I
  ∆Gb (25 ºC): -5.84 ± 0.01 kcal/mol
  ∆Hb (25 ºC): -13.6 ± 0.3 kcal/mol
[8]; ITC, RLP2 about 2 mM titrated into SH3 (50-122 μM), F34I, read-out: Kd (25 ºC)
  Kd: 52.6 ± 1.2 µM
